From PMC10030409 (Investigational New Drugs, 2023)
Where two headings read alike, the source gives them in different places.

What was measured:
clinical [1] = details: human, in vivo
Experimental: Patients were asked to determine the time of drug intake. The collected serum and whole peripheral blood samples were stored at − 80 °C until analysis.
Several candidate PopPK models with different structures were compared based on the goodness-of-fit (GOF) plots and the objective function value (OFV) expressed as minus twice log likelihood (−2LL), and the difference in OFV between the two nested models was statistically evaluated using the chi-square test (the decrease in −2LL >3.84, p < 0.05, was considered statistically significant).
Stepwise covariate analysis was performed to evaluate the effect of covariates on clearance and volume of distribution. The significance of the effect was assessed by the −2LL value; decrease in −2LL of >3.84 (p < 0.050) for the forward addition was considered significant. The impact of body weight (BW), albumin (ALB), age (AGE), sex, aspartate aminotransferase (AST), and alanine aminotransferase (ALT) levels on CLparent/F, CLm5/F, and CLm7/F was evaluated. In addition, BW, ALB, AGE, and sex were evaluated on Vparent/F, Vm5/F, and Vm7/F. The covariates were modeled as shown in equation (c) in the power form for continuous covariates, equation (d) with log-transformation for continuous covariates with outliers, and equation (e) for categorical covariates: […]
The candidate PopPK models were evaluated by goodness of fit, ∆−2LL values, η-shrinkage, and relative standard error (RSE%). […] The uncertainty of the parameters was estimated by performing a bootstrap. The original dataset was randomly resampled to generate 1000 samples, and the parameters estimated from the successful runs were compared to those estimated from the original dataset.

wild-type EGFR = details: higher potency; cited from earlier work
[2] = cited from earlier work; for Fraction of metabolite conversion from the parent: fixed in the PopPK model
[3] = cited from earlier work
[4] = human, in vivo
Experimental: This prospective, longitudinal observational study was designed and conducted at the Ageo Central General Hospital from February 2019 to July 2020 and Keio University Hospital from June 2020 to April 2022. The primary endpoint was the association of exposures to osimertinib, AZ5104, AZ7550, or germline polymorphisms with AE severity. […] Patients who were mentally or physically incapable of providing informed consent were excluded from the study. […] The study was conducted with adherence to the Declaration of Helsinki.

[5] = in vivo
Experimental: Polymorphisms in EGFR, ABCG2, ABCB1, and POR (Online Resource, Appendix A) were analyzed using TaqMan® probe-based assays (Applied Biosystems, Foster City, CA, USA), whereas the ABCG2 polymorphism (rs2231137) was studied using the CycleavePCR® assay (TaKaRa Bio Inc., Kusatsu, Japan). The detailed genotyping method is provided in the Online Resource (Appendix A).
Germline polymorphism and the worst grade of AE occurring in each patient were analyzed for pharmacogenomics–toxicity relationship analysis.
The cut-off date for data collection was April 4, 2022. Continuous variables such as AUC0–24 and laboratory data are presented as median (interquartile range, IQR); estimates of PopPK parameters are presented as mean (standard error, SE). […] Receiver operating characteristic (ROC) curve analysis was used to evaluate the discrimination potential of AUC0–24 for grade ≥ 2 AEs. […] All p-values were two-sided, and statistical significance was set at p < 0.05.
The EGFR polymorphisms (rs2293348, rs4947492, rs11977388, rs2227983, and rs884225), ABCG2 (rs2231142 and rs2622604), ABCB1 (rs1128503, rs1045642, and rs2032582), and POR (rs17685 and rs1057868) were analyzed using Taqman® probe-based assays (Applied Biosystems, CA, USA). The probes (FAM/VIC-fluorescent) and primers for these polymorphisms were purchased from Applied Biosystems (TaqMan® SNP Genotyping Assay ID: C _ 144945_20, C _ 27876021_10, C _ 321871_10, C _ 16170352_20, and C _ 9501579_10 for EGFR polymorphisms; C _ 15854163_70 and C _ 9510352_10 for ABCG2 polymorphisms; C _ 7586662_10, C _ 7586657_20, C_11711720D_40, and C_11711720C_30 for ABCB1 polymorphisms; and C _ 8890133_30 and C _ 8890131_30 for POR polymorphisms). The real-time PCR reaction mix included 4.5 ng of DNA template diluted in 4.5 µL DNase‑Free distilled water, 5 µL TaqMan® Universal Master Mix II with UNG (Uracil-N-Glycosylase), and 0.5 µL TaqMan® SNP Genotyping Assay mix, including the primers and probes, in a total volume of 10 µL. The reactions were performed under the following conditions: UNG incubation at 50 °C for 2 min and polymerase activation at 95 °C for 10 min, followed by 50 cycles of 95 °C for 15 s and 60 °C for 60 s.
ABCG2 polymorphism (rs2231137) was studied using the CycleavePCR® assay (TaKaRa Bio Inc., Kusatsu, Shiga, Japan). The primers and probes for ABCG2 rs2231137 were designed using the CycleavePCR Assay Designer (SNPs, TaKaRa Bio Inc.): forward 5′- […]-3′; reverse 5′-[…]-3′; FAM-labeled probe 5′-(Eclipse)[…][G]TG(FAM)-3′; and HEX-labeled probe 5′-(Eclipse)TATCCCA[A]TGT(HEX)-3′. The real-time PCR reaction mix per reaction included 4 ng of DNA template diluted in 10.5 μL DNase‑Free distilled water, 12.5 μL CycleavePCR Reaction Mix, 0.5 μL each of forward and reverse primers, and 1 μL each of FAM/HEX-labeled probes in a total volume of 26 μL. The reactions were performed under the following conditions: initial denaturation at 95 °C for 10 s, followed by 50 cycles at 95 °C for 5 s, 55 °C for 10 s, and 72 °C for 20 s.
After real-time PCR, the result of the allelic discrimination was plotted by reading the generated fluorescence using CFX Manager Software version 3.1 (Bio-Rad Laboratories). For quality control, all the polymorphisms were genotyped more than twice.

clinical [6] = details: human, in vivo; remark: listed apart in the source
[7] = Osimertinib AUC0-24 <4938 ng/mL*h, n = 29, any grade
[8] = Osimertinib AUC0-24 <4938 ng/mL*h, n = 29, grade ≥2
[9] = Osimertinib AUC0-24 ≥4938 ng/mL*h, n = 22, any grade
[10] = Osimertinib AUC0-24 ≥4938 ng/mL*h, n = 22, grade ≥2

C=CC(=O)Nc1cc(Nc2nccc(-c3c[nH]c4ccccc34)n2)c(OC)cc1N(C)CCN(C)C [AZ5104]
Clearance CL/F (θ1, θ4, θ6) (clinical [1]): 44.41 L/h | Coefficient of variation for clearance (CL/F) (clinical [1]): 35% | Inter-occasion variance of clearance (ω^2 CL,IOV) (clinical [1]): 0.034 | Potency against wild-type EGFR compared with the parent compound (wild-type EGFR): 15 fold | Half-life [2]: 52.6 h | Fraction of metabolite conversion from the parent [2]: 25%

C=CC(=O)Nc1cc(Nc2nccc(-c3cn(C)c4ccccc34)n2)c(OC)cc1N(C)CCNC [AZ7550]
AUC0–24 at steady state, median (IQR) (clinical [1]): 367 (275–516) ng/mL*h | Clearance CL/F (θ1, θ4, θ6) (clinical [1]): 46.2 L/h | Coefficient of variation for clearance (CL/F) (clinical [1]): 27% | Circulating exposure of active metabolite relative to the parent compound [2]: 10% | Half-life [2]: 72.7 h | Fraction of metabolite conversion from the parent [2]: 25% | Association between AUC0–24 and grade ≥ 2 anorexia (human, in vivo): significant association | Association between AUC0–24 and grade ≥ 2 increased creatinine (human, in vivo): significant association | Association between AUC0–24 and grade ≥ 2 paronychia (human, in vivo): significant association | Sensitivity of AUC0–24 cut-off for grade ≥ 2 AEs (human, in vivo): 49% | Specificity of AUC0–24 cut-off for grade ≥ 2 AEs (human, in vivo): 90% | Area under the ROC curve for predicting grade ≥ 2 AEs using AUC0–24 (in vivo): 0.651 | Cut-off AUC0–24 to predict grade ≥ 2 AEs (in vivo): 462 ng·h/mL

C=CC(=O)Nc1cc(Nc2nccc(-c3cn(C)c4ccccc34)n2)c(OC)cc1N(C)CCN(C)C [osimertinib]
Clearance CL/F (θ1, θ4, θ6) (clinical [1]): 17.37 L/h | Coefficient of variation for clearance (CL/F) (clinical [1]): 30% | Volume of distribution V/F (θ2, θ5, θ7) (clinical [1]): 1386 L | Vd/F (clinical [1]; Volume of distribution V/F (θ2, θ5, θ7)): 1270 L | Patients experiencing grade ≥ 2 adverse events [3]: over 80% | Patients experiencing grade ≥ 3 adverse events [3]: > 30% | Association of EGFR-TKI treatment line with severe AEs [4]: higher frequency of severe AEs in patients receiving therapy as first-line treatment | Severe liver dysfunction within the observation period [4]: No patient | Patients who experienced severe AEs (grade 3 or leading to dose discontinuation) ([4]; 3 months): Approximately 25% | Patients with grade ≥ 2 skin disorders (most prevalent grade ≥ 2 AE) ([4]; 3 months): 63% | Patients with interstitial lung disease leading to treatment discontinuation ([4]; 3 months): 2.0% | Any grade ≥ 2 AEs in patients with ABCG2 rs2231137 G/A or A/A genotypes [5]: higher frequency | Association of ABCB1 rs1128503 C > T (C/T and T/T genotypes) with any grade ≥ 2 AEs [5]: significant association | Association of ABCB1 rs2032582 G > T/A (A/T and G/T genotypes) with any grade ≥ 2 skin disorders [5]: associated | Association of ABCB1 rs2032582 G > T/A (A/T and G/T genotypes) with grade ≥ 2 lymphocyte count decrease [5]: associated | Association of EGFR rs2293348 C > T (C/T genotype) with any severe AEs [5]: associated with any severe AEs | Association of EGFR rs2293348 C > T (C/T genotype) with grade ≥ 1 or ≥ 2 anorexia [5]: significantly associated | Association of EGFR rs4947492 G > A (A/A genotype) with any severe AEs [5]: associated with any severe AEs | Association of polymorphisms in POR with any AEs or PK [5]: not significantly associated | AUC(0-t) (clinical [6]): 5530 ng·h/mL | Half-life [2]: 59.7 h | Oral bioavailability [2]: 69.8% | Association between AUC0–24 and grade ≥ 2 increased creatinine (Mann–Whitney U test): significant association | Anorexia, % of patients [7]: (10.3) % | Anorexia, No. of patients [7]: 3 | Any adverse events, % of patients [7]: (100.0) % | Any adverse events, No. of patients [7]: 29 | Creatinine increased, % of patients [7]: (44.8) % | Creatinine increased, No. of patients [7]: 13 | Diarrhea, % of patients [7]: (58.6) % | Diarrhea, No. of patients [7]: 17 | Interstitial lung disease, % of patients [7]: (0.0) % | Interstitial lung disease, No. of patients [7]: 0 | Paronychia, % of patients [7]: (37.9) % | Paronychia, No. of patients [7]: 11 | Anorexia, % of patients [8]: (6.90) % | Anorexia, No. of patients [8]: 2 | Any adverse events, % of patients [8]: (69.0) % | Any adverse events, No. of patients [8]: 20 | Creatinine increased, % of patients [8]: (0.0) % | Creatinine increased, No. of patients [8]: 0 | Diarrhea, % of patients [8]: (0.0) % | Diarrhea, No. of patients [8]: 0 | Interstitial lung disease, % of patients [8]: (0.0) % | Interstitial lung disease, No. of patients [8]: 0 | Paronychia, % of patients [8]: (27.6) % | Paronychia, No. of patients [8]: 8 | Anorexia, % of patients [9]: (18.2) % | Anorexia, No. of patients [9]: 4 | Any adverse events, % of patients [9]: (100.0) % | Any adverse events, No. of patients [9]: 22 | Creatinine increased, % of patients [9]: (50.0) % | Creatinine increased, No. of patients [9]: 11 | Diarrhea, % of patients [9]: (45.5) % | Diarrhea, No. of patients [9]: 10 | Interstitial lung disease, % of patients [9]: (4.5) % | Interstitial lung disease, No. of patients [9]: 1 | Paronychia, % of patients [9]: (54.5) % | Paronychia, No. of patients [9]: 12 | Anorexia, % of patients [10]: (13.6) % | Anorexia, No. of patients [10]: 3 | Any adverse events, % of patients [10]: (95.5) % | Any adverse events, No. of patients [10]: 21 | Creatinine increased, % of patients [10]: (18.2) % | Creatinine increased, No. of patients [10]: 4 | Diarrhea, % of patients [10]: (13.6) % | Diarrhea, No. of patients [10]: 3 | Interstitial lung disease, % of patients [10]: (4.5) % | Interstitial lung disease, No. of patients [10]: 1 | Paronychia, % of patients [10]: (27.3) % | Paronychia, No. of patients [10]: 6 | Sensitivity of AUC0–24 cut-off for grade ≥ 2 AEs (ROC curve): 51% | Specificity of AUC0–24 cut-off for grade ≥ 2 AEs (ROC curve): 90%
